In assay [1] the target is T1, human recombinant adrenergic α2B receptor (Homo sapiens, UniProt P18089).
T1 construct: expressed in transfected cells; host or cells: CHO-K1
T1 sequence (P18089 1-450): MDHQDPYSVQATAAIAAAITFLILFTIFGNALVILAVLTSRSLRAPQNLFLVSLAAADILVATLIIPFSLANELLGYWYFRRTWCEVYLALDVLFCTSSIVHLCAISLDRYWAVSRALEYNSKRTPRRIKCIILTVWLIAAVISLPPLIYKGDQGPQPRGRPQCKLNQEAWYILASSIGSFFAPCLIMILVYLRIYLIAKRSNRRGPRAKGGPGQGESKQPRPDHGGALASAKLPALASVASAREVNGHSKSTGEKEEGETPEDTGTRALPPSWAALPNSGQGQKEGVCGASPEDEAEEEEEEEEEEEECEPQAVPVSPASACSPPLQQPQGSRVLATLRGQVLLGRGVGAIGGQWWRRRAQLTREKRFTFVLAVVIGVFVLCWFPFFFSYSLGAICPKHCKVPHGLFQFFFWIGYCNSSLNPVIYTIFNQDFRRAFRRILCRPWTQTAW
The experiment in a line: Radioligand binding, adrenergic α2B ([3H]Rauwolscine). As to conditions: 0.1 μM compound; read-out: Percentage inhibition of ligand binding, Adrenergic α2B. The gist of the method: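 Values are percent inhibition of specific radioligand binding. The receptor, expressed in CHO-K1 cells, was exposed to 2.5 nM [3H]Rauwolscine at 25° C for 60 min, with 10 μM Prazosin marking non-specific binding.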

The target of assay [2] is T2, human recombinant adrenergic α2A receptor (Homo sapiens, UniProt P08913).
T2 construct: expressed in transfected cells; host or cells: insect Sf9 cells
T2 sequence (P08913 1-465): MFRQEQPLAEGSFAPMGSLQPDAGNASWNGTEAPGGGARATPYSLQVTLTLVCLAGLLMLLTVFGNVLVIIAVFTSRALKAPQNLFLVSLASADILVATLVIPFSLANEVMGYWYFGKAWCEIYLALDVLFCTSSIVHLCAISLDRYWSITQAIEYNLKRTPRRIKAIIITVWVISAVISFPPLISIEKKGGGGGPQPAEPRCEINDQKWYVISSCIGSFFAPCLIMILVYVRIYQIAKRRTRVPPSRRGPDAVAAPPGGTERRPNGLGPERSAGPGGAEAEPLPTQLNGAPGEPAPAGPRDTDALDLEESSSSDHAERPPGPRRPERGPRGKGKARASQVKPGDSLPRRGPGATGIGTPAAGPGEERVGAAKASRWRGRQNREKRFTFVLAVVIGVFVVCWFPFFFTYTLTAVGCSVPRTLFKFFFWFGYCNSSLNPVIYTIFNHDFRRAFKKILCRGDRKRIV
The assay is described as follows: Radioligand binding, adrenergic α2A ([3H]MK-912). Particulars: 0.1 μM compound; read-out: Percentage inhibition of ligand binding, Adrenergic α2A. The gist of the method:
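Receptor expressed in insect Sf9 cells, assayed in 50 mM Tris-HCl pH 7.4 with 12.5 mM MgCl2 and 2 mM EDTA. Compounds incubated with 1 nM [3H]MK-912 for 60 min at 25 °C; nonspecific binding defined with 10 μM WB-4101. Filter-bound radioactivity counted; values are percent inhibition of specific binding.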

In assay [3] the target is T3, rat adrenergic α1B receptor (Rattus norvegicus, UniProt P15823).
T3 construct: rat adrenergic α1B receptor obtained from Wistar Rat liver; from tissue; host or cells: Wistar rat liver
T3 sequence (P15823 1-515): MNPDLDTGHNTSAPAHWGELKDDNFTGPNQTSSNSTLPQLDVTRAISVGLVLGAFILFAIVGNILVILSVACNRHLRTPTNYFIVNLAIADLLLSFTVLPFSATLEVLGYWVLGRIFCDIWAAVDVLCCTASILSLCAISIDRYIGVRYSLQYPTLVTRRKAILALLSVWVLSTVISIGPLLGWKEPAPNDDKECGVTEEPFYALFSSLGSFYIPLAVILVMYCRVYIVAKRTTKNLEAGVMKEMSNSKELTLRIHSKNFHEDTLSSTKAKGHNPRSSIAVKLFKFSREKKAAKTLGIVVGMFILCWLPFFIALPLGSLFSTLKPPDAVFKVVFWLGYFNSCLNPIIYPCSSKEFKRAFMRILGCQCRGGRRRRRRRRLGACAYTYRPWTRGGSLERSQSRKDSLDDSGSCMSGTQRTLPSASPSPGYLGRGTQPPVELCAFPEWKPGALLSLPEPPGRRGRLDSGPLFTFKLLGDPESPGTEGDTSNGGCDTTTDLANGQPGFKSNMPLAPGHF
The experiment in a line: Radioligand binding, adrenergic α1B ([3H]Prazosin). As to conditions: 0.1 μM compound; read-out: Percentage inhibition of ligand binding, Adrenergic α1B. The essentials:
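Incubation ran 60 min at 25 °C in Tris-HCl buffer (50 mM, pH 7.4, 0.5 mM EDTA) with Wistar rat liver α1B receptor. 10 μM phentolamine set non-specific binding.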

In assay [4] the target is T4, human recombinant adrenergic α1D receptor (Homo sapiens, UniProt P25100).
T4 construct: expressed in transfected cells; host or cells: HEK-293
T4 sequence (P25100 1-572): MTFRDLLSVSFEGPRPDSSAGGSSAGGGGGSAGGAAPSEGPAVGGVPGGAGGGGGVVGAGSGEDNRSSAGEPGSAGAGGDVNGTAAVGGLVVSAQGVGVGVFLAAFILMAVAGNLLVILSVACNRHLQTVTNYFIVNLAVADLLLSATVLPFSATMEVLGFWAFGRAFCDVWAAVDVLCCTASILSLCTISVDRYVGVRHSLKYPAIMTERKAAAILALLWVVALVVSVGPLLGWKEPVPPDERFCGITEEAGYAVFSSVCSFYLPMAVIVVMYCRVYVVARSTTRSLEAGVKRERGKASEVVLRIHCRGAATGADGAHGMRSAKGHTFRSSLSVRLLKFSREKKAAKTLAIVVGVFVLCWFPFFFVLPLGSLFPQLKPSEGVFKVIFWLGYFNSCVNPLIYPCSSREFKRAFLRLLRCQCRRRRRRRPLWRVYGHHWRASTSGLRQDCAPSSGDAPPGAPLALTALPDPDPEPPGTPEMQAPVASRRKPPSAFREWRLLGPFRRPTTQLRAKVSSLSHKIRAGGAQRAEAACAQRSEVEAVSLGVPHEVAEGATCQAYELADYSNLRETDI
The assay is described as follows: Radioligand binding, adrenergic α1D ([3H]Prazosin). As to conditions: 0.1 μM compound; read-out: Percentage inhibition of ligand binding, Adrenergic α1D. Here is the method:
Compounds were incubated with 0.6 nM [3H]Prazosin for 60 min at 25° C. Non-specific binding was estimated in the presence of 10 μM phentolamine. Receptor proteins were filtered and washed, the filters were then counted to determine [3H]Prazosin specifically bound. […] Biochemical assay results are presented as the percent inhibition of specific binding in Table B1.

Usually inhibition stands for the drop in the measured response relative to a control, in per cent. With `Cc1ccc2c(c1)c1c(n2CC(C)c2ccncc2)CCN(C)C1` (stereo not drawn) [compound 255], the inhibition at 0.1 µM came out at 96% in assay [1], 63% in assay [2], 55% in assay [3] and 43% in assay [4].
For `Cc1ccc2c(c1)c1c(n2C#Cc2cccc(N(C)C)c2)CCN(C)C1` [compound 256], in that order: 58%, 55%, 47% and 23%.
As to `C/C(=C\n1c2c(c3cc(Cl)ccc31)CN(C)C(C)C2)c1ccc(C)nc1` (stereo not drawn) [compound 257], the inhibition at 0.1 µM in assay [1] was 100%; in assay [2] it was 84%; in assay [3], 51%; in assay [4], 24%.
As to `C/C(=C/n1c2c(c3cc(C)ccc31)CN(C)CC2)c1ccc(F)cc1F` [compound 258], the inhibition at 0.1 µM in assay [1] amounted to 99%; in assay [2], 94%; in assay [3], 93%; in assay [4] it was 74%.
The like results for `C/C(=C\n1c2c(c3cc(C)ccc31)CN(C)CC2)c1ccccn1` [compound 259] were, in that order, 98%, 82%, 71% and 53%.
The like results for `Cc1ccc2c(c1)c1c(n2CC(C)(C)c2ccncc2)CCN(C)C1` [compound 260] were, in that order, 92%, 54%, 45% and 26%.
For `C/C(=C\n1c2c(c3cc(C)ccc31)CN(C)CC2)C1CCCCC1` [compound 261], in that order: 84%, 84%, 50% and 30%.
With `C/C=C(/c1ccccc1)n1c2c(c3cc(C)ccc31)CN(C)CC2` [compound 262], the inhibition at 0.1 µM turned out to be 74% in assay [1], 87% in assay [2], 52% in assay [3] and 35% in assay [4].
For `Cc1ccc2c(c1)c1c(n2CC(O)(c2ccccc2)c2ccccc2)CCN(C)C1` [compound 263], in that order: 54%, 61%, 1% and 6%.
For `Cc1ccc2c(c1)c1c(n2C#Cc2ccncc2)CCN(C)C1` [compound 264], in that order: 82%, 81%, 79% and 46%.
The like results for `C/C(=C\c1ccccc1)n1c2c(c3cc(C)ccc31)CN(C)CC2` [compound 265] were, in that order, 70%, 67%, 50% and 30%.
Take `COc1ccc(/C(C)=C/n2c3c(c4cc(C)ccc42)CN(C)CC3)cn1` [compound 266]: the inhibition at 0.1 µM in assay [1] amounted to 92%; in assay [2], 62%; in assay [3], 63%; in assay [4], 72%.
For `Cc1ccc2c(c1)c1c(n2C=C(c2ccccc2)c2ccccc2)CCN(C)C1` [compound 267], in that order: 85%, 63%, 7% and 26%.
The like results for `CSc1cccc(/C(C)=C/n2c3c(c4cc(C)ccc42)CN(C)CC3)c1` [compound 268] were, in that order, 94%, 90%, 57% and 39%.
The like results for `COc1cc(/C(C)=C/n2c3c(c4cc(C)ccc42)CN(C)CC3)ccn1` [compound 269] were, in that order, 83%, 61%, 36% and 44%.
`C/C(=C\n1c2c(c3cc(C)ccc31)CN(C)CC2)c1ccc2ccccc2c1` [compound 270]: the inhibition at 0.1 µM in assay [1] is 76%; in assay [2], 96%; in assay [3], 50%; in assay [4] it was 66%.
For `C/C(=C/n1c2c(c3cc(C)ccc31)CN(C)CC2)c1ccc2ccccc2c1` [compound 271], in that order: 71%, 97%, 65% and 83%.
The like results for `C/C(=C/n1c2c(c3cc(C)ccc31)CN(C)CC2)c1ccnn1C` [compound 273] were, in that order, 89%, 67%, 88% and 71%.
`C=CCC1(C)CN(C)Cc2c1n(/C=C(\C)c1ccc(F)cc1)c1ccc(C)cc21` (stereo not drawn) [compound 274, 4-allyl-5-[2-(4-fluoro-phenyl)-propenyl]-2,4,8-trimethyl-2,3,4,5-tetrahydro-1H-pyrido[4,3-b]indole]: the inhibition at 0.1 µM in assay [1] stood at 27%; in assay [2], 68%; in assay [3], 28%; in assay [4], 25%.
The like results for `C/C(=C/n1c2c(c3cc(C)ccc31)CN(C)CC2)c1cnn(C)c1` [compound 275] were, in that order, 94%, 51%, 75% and 61%.
On to `C/C(=C/n1c2c(c3cc(C)ccc31)CN(C)CC2)c1ccc(F)nc1` [compound 276], for which the inhibition at 0.1 µM in assay [1] is 101%; in assay [2] it was 71%; in assay [3], 86%; in assay [4], 81%.

The values are drawn from patent US8791132B2, “Compounds and methods for treatment of hypertension” (Medivation Technologies, Inc., priority 2011, dated 2014).
